Experiments:
[1] = test system: genes that control liver gluconeogenesis and lipid synthesis; assay: expression of glucose- and lipid-related genes in in vitro models; format: cell-based
Method: (§1) The compound 2,2,15,15-tetramethylhexadecane-1,16-dioic acid (also designated M16αα), and also the compounds […] (M18αα) and 2,2,19,19-tetramethyl-[…]-1,20-dioic acid (M20αα), were tested for their effect on glucose uptake and production, and the expression of glucose- and lipid-related genes in in vitro models. […] Inhibition of glucose production was tested in HepG2 human liver cells.

[2] = test system: HepG2 human liver cells; assay: inhibition of glucose production in HepG2 cells; format: cell-based
Method: as §1

[3] = test system: cultured human HepG2 liver cells; assay: inhibition of lipoprotein production in HepG2 cells; format: cell-based
[4] = test system: C57BL/KsJ (db/db) Spontaneous T2D mice; assay: glucose lowering effect in db/db mice; format: in vivo; conditions: once daily oral 30 mg/kg
Method: In addition, the glucose lowering effect of the above three compounds M16αα, M18αα and M20αα was tested in C57BL/KsJ (db/db) Spontaneous T2D mice, which serve as a model for T2D. These animals are characterized by hyperphagia, obesity, hyperglycemia and insulin resistance. The mice were treated once daily by oral administration of the tested compound at 30 mg/kg.

[5] = test system: fully differentiated 3T3L1 adipocytes; assay: glucose uptake in 3T3L1 adipocytes; format: cell-based; conditions: insulin as positive control
Method: as §1

[6] = half-life in humans; format: in vivo; conditions: human, in vivo, read-out: half-life (T1/2) (converted)
Source text: (§2) The half-life (T1/2) of Medica compounds in humans differs considerably from their half-life in model animals. […] This difference in half-life could not be expected, and is of considerable significance when designing a new treatment protocol for humans.

[7] = half-life in dogs; conditions: dog, in vivo, read-out: half-life (T1/2) (converted)
Source text: as §2

[8] = half-life in rats; conditions: rat, in vivo, read-out: half-life (T1/2) (converted)
Source text: as §2

half-life [6] [h]	half-life [7] [h]	half-life [8] [h]	SMILES	expression of genes that control liver gluconeogenesis and lipid synthesis [1]	hepatic glucose production [2]	lipoprotein production [3]	blood glucose levels [4]	serum insulin levels [4]	serum triglyceride levels [4]	glucose uptake [5]
			CC(C)(CCCCCCCCCCCCCCC(C)(C)C(=O)O)C(=O)O [M18αα, 2,2,17,17-tetramethylocta-decane-1,18-dioic acid]	effective in inhibiting	significant or full inhibition	significant or full inhibition	significantly decrease	significantly decrease	significantly decrease	increase glucose uptake
			CC(C)(CCCCCCCCCCCCCCCCC(C)(C)C(=O)O)C(=O)O [M20αα]	effective in inhibiting	significant or full inhibition	significant or full inhibition	significantly decrease	significantly decrease	significantly decrease	increase glucose uptake
31.5 ± 12.8	25.8	2.7 ± 0.4	CC(C)(CCCCCCCCCCC(C)(C)CC(=O)O)CC(=O)O [Medica16-ββ, 3,3,14,14-tetramethylhexadecanedioic acid, reference compound]							

Reference: patent US11207285B2, “Diabetes treatment regimens using alpha, alpha-substituted long-chain amphipathic carboxylates” (SYNDROMEX LTD., priority 2016, dated 2021)
